Read-outs that look alike come from different tables or passages of the source.
Assays:
[1] = biological target: CK1g2 (Homo sapiens, UniProt P78368); assay: Kinase selectivity, % remaining activity; format: biochemical; settings: 10 μM compound, 10 μM ATP, duplicate; for remaining activity at 10 µM: read-out: % of remaining activity (relative to DMSO)
Procedure, shortened: (§1)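 Single 10 μM compound dose tested in duplicate, with 10 μM ATP in the kinase reactions. Values are % remaining activity relative to DMSO.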

[2] = biological target: T1, ALK5/TGFBR1 (Homo sapiens, UniProt P36897); assay: Kinase selectivity, % remaining activity; format: biochemical; settings: 10 μM compound, 10 μM ATP, duplicate; for remaining activity at 10 µM: read-out: % of remaining activity (relative to DMSO)
T1 sequence (P36897 34-503): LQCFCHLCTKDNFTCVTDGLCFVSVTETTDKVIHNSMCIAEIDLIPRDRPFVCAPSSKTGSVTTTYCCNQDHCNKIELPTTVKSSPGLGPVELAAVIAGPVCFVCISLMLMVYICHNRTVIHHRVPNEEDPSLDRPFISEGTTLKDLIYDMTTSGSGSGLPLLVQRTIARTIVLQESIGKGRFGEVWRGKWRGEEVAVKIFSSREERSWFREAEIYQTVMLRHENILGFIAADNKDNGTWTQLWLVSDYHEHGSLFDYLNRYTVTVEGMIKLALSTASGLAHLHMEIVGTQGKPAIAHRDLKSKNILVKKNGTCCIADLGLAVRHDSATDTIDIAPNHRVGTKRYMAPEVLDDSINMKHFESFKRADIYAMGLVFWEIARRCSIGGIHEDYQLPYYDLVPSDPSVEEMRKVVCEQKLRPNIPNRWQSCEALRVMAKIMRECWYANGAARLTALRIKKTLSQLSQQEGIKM
Procedure, shortened: as §1

[3] = biological target: MSK1/RPS6KA5 (Homo sapiens, UniProt O75582); assay: Kinase selectivity, % remaining activity; format: biochemical; settings: 10 μM compound, 10 μM ATP, duplicate; for remaining activity at 10 µM: read-out: % of remaining activity (relative to DMSO)
Procedure, shortened: as §1

[4] = biological target: CK1a1 (Homo sapiens, UniProt P48729); assay: Kinase selectivity, % remaining activity; format: biochemical; settings: 10 μM compound, 10 μM ATP, duplicate
Method: (§2) Compounds were tested in single dose duplicate mode at a concentration of 10 μM (in DMSO) and reactions were carried out at 10 μM ATP, Table 3 reports the % of remaining activity (relative to DMSO).

[5] = biological target: CK1d (casein kinase 1 delta) (Homo sapiens, UniProt P48730); assay: Kinase selectivity, % remaining activity and IC50; format: biochemical; settings: 10 μM ATP; for % of remaining activity (relative to DMSO) / remaining activity at 10 µM: CK1d, 10 μM compound, duplicate; for remaining activity at 10 µM: read-out: % of remaining activity (relative to DMSO); for IC50: casein kinase 1 delta, 10-dose, 3 fold serial dilution
Method: A two-tier strategy to determine the selectivity of compound A was applied: first, the compound was tested at a single concentration (in duplicate) to determine the %-remaining activity of the target kinase. Subsequently, the IC50 of compound A and comparative compounds for casein kinase 1 delta were determined.
as §2
Control compound GW5074 (Tocris®) was tested starting at 20 μM. Reactions were carried out at 10 μM ATP.

[6] = biological target: p38-delta (Homo sapiens, UniProt O15264); assay: KINOMEscan binding assay; settings: read-out: % Ctrl @ 10000 nM
[7] = biological target: CSF1R-autoinhibited (Homo sapiens, UniProt P07333); assay: KINOMEscan binding assay; settings: read-out: % Ctrl @ 10000 nM
[8] = biological target: RET (M918T) (Homo sapiens, UniProt P07949, M918T); assay: KINOMEscan binding assay; settings: read-out: % Ctrl @ 10000 nM
[9] = biological target: p38-gamma (Homo sapiens, UniProt P53778); assay: KINOMEscan binding assay; settings: read-out: % Ctrl @ 10000 nM
[10] = biological target: PRKCH (Homo sapiens, UniProt P24723); assay: KINOMEscan binding assay; settings: read-out: % Ctrl @ 10000 nM
[11] = biological target: JNK3 (Homo sapiens, UniProt P53779); assay: KINOMEscan binding assay; settings: read-out: % Ctrl @ 10000 nM
[12] = biological target: JAK1 (JH1domain-catalytic) (Homo sapiens, UniProt P23458); assay: KINOMEscan binding assay; settings: read-out: % Ctrl @ 10000 nM
[13] = biological target: ANKK1 (Homo sapiens, UniProt Q8NFD2); assay: KINOMEscan binding assay; settings: read-out: % Ctrl @ 10000 nM
[14] = biological target: TBK1 (Homo sapiens, UniProt Q9UHD2); assay: KINOMEscan binding assay; settings: read-out: % Ctrl @ 10000 nM
[15] = biological target: MST3 (Homo sapiens, UniProt Q9Y6E0); assay: KINOMEscan binding assay; settings: read-out: % Ctrl @ 10000 nM
[16] = test system: TMHT (Thy-1 Mutated Human Tau) mouse; assay: In-vivo efficacy, Morris Water Maze in tau transgenic mice; settings: 30 mg/kg orally for 8 weeks
Excerpt: Various compounds of different classes (among them also antibody treatments) were positively tested for their efficacy in the TMHT model. Published examples are the γ-secretase modulator CHF5074 (Lanzilotta A, et al. The γ-secretase modulator CHF5074 reduces the accumulation of native hyperphosphoxylated tau in a transgenic mouse model of Alzheimer's disease. J Mol Neurosci. 45(1):22--33 (2010)), sodium selenate (Corcoran N M et al. Sodium selenate specifically activates PP2A phosphatase, dephosphorylates tau and reverses memory deficits in an Alzheimer's disease model. J Clin Neurosci. 17(8):1025-33 (2010)) and grape-seed polyphenol extract (Wang J et al. Grape derived polyphenols attenuate tau neuropathology in a mouse model of Alzheimer's disease. […] The effects of the compounds on learning in the Morris Mater Maze (MWM) were evaluated. Blood (plasma) and brain samples were collected after sacrification. Samples collected at sacrifice were plasma, left cortex, left hippocampus, right cortex, right hippocampus, remainder of left brain hemisphere, remainder of right brain hemisphere. In total 48 animals were used and allocated to 4 treatment groups. The start position of the mouse and the position of the platform (FIG. 1) in the different trials of the MWM were as indicated in Table 9: […] A descriptive statistical analysis was performed on all evaluated parameters. All data were represented as mean ±standard error of mean (SEM). MWM learning curve data of three trials per day were averaged. Over a period of 4 days, the ability to find a hidden platform using visual cues was measured performing 3 trials a day. By comparison of the learning curves, the cognitive abilities of the different treatment groups and possible drug effects were evaluated.

[17] = biological target: NEK2 (Homo sapiens, UniProt P51955); assay: KINOMEscan binding assay; settings: read-out: % Ctrl @ 10000 nM
[18] = biological target: CSNK1G2 (Homo sapiens, UniProt P78368); assay: KINOMEscan binding assay; settings: read-out: % Ctrl @ 10000 nM
[19] = biological target: MARK2 (Homo sapiens, UniProt Q7KZI7); assay: KINOMEscan binding assay; settings: read-out: % Ctrl @ 10000 nM
[20] = biological target: PRKG1 (Homo sapiens, UniProt Q13976); assay: KINOMEscan binding assay; settings: read-out: % Ctrl @ 10000 nM
[21] = CK1a1, read-out: % of remaining activity (relative to DMSO)

Sequence of CK1g2 (P78368 whole entry, species assumed): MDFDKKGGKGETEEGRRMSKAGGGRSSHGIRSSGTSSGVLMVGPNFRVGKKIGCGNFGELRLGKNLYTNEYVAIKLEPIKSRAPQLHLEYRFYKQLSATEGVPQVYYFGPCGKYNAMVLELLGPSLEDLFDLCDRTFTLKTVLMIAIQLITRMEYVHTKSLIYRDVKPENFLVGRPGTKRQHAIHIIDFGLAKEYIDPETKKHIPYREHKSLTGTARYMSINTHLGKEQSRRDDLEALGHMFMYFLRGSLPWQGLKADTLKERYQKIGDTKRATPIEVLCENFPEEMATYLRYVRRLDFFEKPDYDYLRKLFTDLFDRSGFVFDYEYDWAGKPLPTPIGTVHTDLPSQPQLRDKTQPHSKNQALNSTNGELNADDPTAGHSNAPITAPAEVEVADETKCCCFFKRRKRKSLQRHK
Sequence of MSK1/RPS6KA5 (O75582 whole entry): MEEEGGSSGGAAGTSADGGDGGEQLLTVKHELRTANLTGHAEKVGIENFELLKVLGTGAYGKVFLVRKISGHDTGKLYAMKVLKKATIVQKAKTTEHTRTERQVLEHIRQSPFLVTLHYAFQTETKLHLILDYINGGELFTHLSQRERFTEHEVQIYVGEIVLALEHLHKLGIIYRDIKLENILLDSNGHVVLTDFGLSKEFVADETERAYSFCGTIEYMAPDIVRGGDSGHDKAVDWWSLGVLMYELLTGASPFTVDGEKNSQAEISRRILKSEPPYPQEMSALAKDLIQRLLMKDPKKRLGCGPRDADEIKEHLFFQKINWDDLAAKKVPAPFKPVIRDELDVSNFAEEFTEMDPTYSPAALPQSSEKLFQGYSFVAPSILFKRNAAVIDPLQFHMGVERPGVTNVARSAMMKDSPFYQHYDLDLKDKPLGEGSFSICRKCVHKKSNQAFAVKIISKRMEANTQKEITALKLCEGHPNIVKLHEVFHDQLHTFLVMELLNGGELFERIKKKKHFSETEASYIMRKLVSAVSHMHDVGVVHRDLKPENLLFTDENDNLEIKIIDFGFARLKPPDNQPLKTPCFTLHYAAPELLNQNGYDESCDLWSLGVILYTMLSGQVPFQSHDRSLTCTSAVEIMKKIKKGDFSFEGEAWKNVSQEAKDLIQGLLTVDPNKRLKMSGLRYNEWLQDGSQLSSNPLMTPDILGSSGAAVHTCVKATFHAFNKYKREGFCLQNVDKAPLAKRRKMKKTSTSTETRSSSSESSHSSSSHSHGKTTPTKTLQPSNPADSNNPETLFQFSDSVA
Sequence of CK1a1 (P48729 whole entry): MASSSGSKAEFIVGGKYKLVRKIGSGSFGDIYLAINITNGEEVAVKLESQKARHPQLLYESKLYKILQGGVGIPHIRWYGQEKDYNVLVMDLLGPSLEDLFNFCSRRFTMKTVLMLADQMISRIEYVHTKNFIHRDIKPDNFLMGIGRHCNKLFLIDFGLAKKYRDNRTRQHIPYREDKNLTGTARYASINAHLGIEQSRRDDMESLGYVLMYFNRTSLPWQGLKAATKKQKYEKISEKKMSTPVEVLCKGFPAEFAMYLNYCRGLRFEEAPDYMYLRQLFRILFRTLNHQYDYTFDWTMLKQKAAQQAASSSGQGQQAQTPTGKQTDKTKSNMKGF
Sequence of CK1d (casein kinase 1 delta) (P48730 whole entry): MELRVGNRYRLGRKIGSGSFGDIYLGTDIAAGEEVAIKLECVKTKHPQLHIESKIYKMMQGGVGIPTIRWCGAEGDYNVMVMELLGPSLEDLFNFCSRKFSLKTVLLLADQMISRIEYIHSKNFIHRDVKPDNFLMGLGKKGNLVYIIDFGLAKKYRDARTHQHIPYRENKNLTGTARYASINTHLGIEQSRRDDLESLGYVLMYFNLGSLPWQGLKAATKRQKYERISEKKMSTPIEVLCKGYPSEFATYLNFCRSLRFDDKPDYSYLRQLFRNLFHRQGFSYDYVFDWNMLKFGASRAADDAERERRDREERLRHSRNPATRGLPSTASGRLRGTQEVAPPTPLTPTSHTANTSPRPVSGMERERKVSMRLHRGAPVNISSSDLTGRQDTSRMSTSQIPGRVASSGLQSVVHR
Sequence of PRKCH (P24723 whole entry): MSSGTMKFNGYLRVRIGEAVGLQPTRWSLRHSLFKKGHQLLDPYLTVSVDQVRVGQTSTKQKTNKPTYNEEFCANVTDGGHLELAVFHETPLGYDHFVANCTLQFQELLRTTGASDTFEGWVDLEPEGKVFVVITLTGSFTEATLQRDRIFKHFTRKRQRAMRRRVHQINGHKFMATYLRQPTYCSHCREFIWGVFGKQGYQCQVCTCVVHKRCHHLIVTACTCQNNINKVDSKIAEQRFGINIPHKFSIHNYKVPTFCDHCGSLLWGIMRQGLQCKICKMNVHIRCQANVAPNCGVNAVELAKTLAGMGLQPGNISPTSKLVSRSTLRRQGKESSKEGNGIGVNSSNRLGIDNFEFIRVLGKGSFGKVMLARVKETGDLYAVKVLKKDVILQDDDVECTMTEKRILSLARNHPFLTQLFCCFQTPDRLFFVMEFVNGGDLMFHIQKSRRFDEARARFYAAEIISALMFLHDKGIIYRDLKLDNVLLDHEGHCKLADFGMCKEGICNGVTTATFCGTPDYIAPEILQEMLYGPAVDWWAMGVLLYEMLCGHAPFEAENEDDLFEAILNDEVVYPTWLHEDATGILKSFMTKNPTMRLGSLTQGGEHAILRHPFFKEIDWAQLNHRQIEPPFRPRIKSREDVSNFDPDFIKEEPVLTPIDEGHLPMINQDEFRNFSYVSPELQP
Sequence of ANKK1 (Q8NFD2 whole entry): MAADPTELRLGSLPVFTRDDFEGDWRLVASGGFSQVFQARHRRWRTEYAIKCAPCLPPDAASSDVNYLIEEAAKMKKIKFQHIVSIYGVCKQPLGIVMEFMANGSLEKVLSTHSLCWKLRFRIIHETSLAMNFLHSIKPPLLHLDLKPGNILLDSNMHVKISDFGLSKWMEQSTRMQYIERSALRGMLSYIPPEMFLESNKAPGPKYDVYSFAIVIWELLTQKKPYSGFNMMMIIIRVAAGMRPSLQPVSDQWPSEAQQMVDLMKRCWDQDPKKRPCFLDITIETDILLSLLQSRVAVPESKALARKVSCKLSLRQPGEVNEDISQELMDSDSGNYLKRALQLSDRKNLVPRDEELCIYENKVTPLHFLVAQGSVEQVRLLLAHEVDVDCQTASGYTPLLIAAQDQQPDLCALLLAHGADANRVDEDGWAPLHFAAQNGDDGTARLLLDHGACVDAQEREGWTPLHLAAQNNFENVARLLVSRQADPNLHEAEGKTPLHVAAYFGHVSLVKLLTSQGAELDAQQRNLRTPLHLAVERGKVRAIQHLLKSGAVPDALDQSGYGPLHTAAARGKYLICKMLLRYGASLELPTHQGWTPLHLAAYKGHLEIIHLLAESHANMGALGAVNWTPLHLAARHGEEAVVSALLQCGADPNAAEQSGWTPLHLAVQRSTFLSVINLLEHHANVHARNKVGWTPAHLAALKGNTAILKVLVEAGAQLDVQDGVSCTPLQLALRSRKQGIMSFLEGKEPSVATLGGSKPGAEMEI
Sequence of CSNK1G2 (P78368 whole entry): as the sequence (P78368 whole entry, species assumed) above
Sequence of JNK3 (P53779 whole entry): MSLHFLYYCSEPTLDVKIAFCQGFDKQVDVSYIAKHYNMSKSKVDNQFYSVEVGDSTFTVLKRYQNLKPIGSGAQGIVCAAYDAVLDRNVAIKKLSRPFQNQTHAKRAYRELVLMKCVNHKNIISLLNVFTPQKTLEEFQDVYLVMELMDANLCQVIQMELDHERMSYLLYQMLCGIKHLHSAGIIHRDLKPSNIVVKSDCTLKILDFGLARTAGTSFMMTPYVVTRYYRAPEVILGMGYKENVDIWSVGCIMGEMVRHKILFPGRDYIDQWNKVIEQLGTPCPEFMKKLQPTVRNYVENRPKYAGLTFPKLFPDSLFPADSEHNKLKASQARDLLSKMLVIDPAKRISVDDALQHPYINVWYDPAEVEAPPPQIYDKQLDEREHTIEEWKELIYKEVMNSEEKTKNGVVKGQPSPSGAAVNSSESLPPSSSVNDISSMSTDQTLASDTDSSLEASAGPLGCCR
Sequence of PRKG1 (Q13976 whole entry): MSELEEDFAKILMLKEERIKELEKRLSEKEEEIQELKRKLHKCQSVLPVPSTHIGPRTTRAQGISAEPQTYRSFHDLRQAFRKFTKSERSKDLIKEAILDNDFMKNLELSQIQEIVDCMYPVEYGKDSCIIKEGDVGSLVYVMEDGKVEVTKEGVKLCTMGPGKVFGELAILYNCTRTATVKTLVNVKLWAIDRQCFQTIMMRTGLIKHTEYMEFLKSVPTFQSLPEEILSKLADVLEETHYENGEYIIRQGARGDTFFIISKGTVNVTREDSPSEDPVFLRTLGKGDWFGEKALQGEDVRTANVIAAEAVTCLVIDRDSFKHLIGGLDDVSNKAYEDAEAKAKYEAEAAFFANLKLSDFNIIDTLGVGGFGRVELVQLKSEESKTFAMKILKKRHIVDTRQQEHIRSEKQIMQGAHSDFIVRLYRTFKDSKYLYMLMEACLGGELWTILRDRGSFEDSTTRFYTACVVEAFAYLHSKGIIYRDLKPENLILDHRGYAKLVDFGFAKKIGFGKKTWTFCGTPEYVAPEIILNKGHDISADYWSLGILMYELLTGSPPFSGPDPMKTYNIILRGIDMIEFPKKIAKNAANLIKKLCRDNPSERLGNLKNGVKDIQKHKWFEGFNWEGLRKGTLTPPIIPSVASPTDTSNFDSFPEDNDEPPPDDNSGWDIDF

Structure (SMILES) | remaining activity at 10 µM [1] [%] | remaining activity at 10 µM [2] [%] | remaining activity at 10 µM [3] [%] | remaining activity at 10 µM [4, 21] [%] | remaining activity at 10 µM [5] [%] | IC50 [5] [nM] | remaining binding at 10 µM [6] [%] | remaining binding at 10 µM [7] [%] | remaining binding at 10 µM [8] [%] | remaining binding at 10 µM [9] [%] | remaining binding at 10 µM [10] [%] | remaining binding at 10 µM [11] [%] | Escape latency (time to reach the target), Mean ± SEM, Day 1 [16] [s] | Path length to reach the target, Mean ± SEM, Day 1 [16] [meter] | Escape latency (time to reach the target), Mean ± SEM, Day 2 [16] [s] | Path length to reach the target, Mean ± SEM, Day 2 [16] [meter] | Escape latency (time to reach the target), Mean ± SEM, Day 3 [16] [s] | Path length to reach the target, Mean ± SEM, Day 3 [16] [meter] | Escape latency (time to reach the target), Mean ± SEM, Day 4 [16] [s] | Path length to reach the target, Mean ± SEM, Day 4 [16] [meter] | other results
COc1ccc(C=C2N=C(c3cccs3)OC2=O)cc1 [Comparative Compound 315, 4-((4-methoxyphenyl)methylene)-2-(2-thienyl)-5(4H)-oxalone] | 47.3 | 107 | 117 | 33.6 | 2.23 | 435 | – | – | – | – | – | – | – | – | – | – | – | – | – | – | % of remaining activity (relative to DMSO) ([1]; listed as Cmp 315): 50.52%; % of remaining activity (relative to DMSO) ([2]; listed as Cmp 315): 110.31%; % of remaining activity (relative to DMSO) ([3]; listed as Cmp 315): 118.15%; % of remaining activity (relative to DMSO) ([4]; CK1a1, listed as Cmp 315): 44.41%; % of remaining activity (relative to DMSO) ([5]; listed as Cmp 315): 1.38%
Nc1ncc(-c2nc3ccccc3o2)c(-c2ccncc2)n1 [Comparative Compound 324, 5-(1,3-benzoxazol-2-yl)-4-(pyridine-4-yl)pyrimidin-2-amine] | 58 | 105 | 81.1 | 65.7 | 13.3 | 483 | 90 | 70 | 88 | 61 | 99 | 6 | 54.9 ± 2.66 | 8.81 ± 0.55 | 46.6 ± 3.82 | 6.77 ± 0.64 | 39.8 ± 3.95 | 5.25 ± 0.58 | 36.9 ± 3.87 | 5.17 ± 0.62 | % of remaining activity (relative to DMSO) ([1]; listed as Cmp 324): 58.69%; % of remaining activity (relative to DMSO) ([2]; listed as Cmp 324): 101.71%; % of remaining activity (relative to DMSO) ([3]; listed as Cmp 324): 94.78%; % of remaining activity (relative to DMSO) ([4]; CK1a1, listed as Cmp 324): 58.48%; remaining binding at 10 µM [12]: 88%; % of remaining activity (relative to DMSO) ([5]; listed as Cmp 324): 11.87%; remaining binding at 10 µM [13]: 71%; remaining binding at 10 µM [14]: 85%; remaining binding at 10 µM [15]: 98%; remaining binding at 10 µM [17]: 98%; remaining binding at 10 µM [18]: 72%; remaining binding at 10 µM [19]: 91%; remaining binding at 10 µM [20]: 100%
CNc1c(C(N)=O)c2ccccn2c1C(=O)c1ccc(F)cc1 [Compound A, 2-methyl-amino-3-[(4-fluorophenyl)carbonyl]indolizine-1-carboxamide] | 95.5 | 110 | 117 | 5.17 | 1.15 | 17.4 | 85 | 100 | 56 | 79 | 95 | 48 | 58.1 ± 1.44 | 9.20 ± 0.46 | 53.7 ± 2.41 | 8.60 ± 0.52 | 49.4 ± 3.23 | 7.05 ± 0.62 | 45.4 ± 3.22 | 6.94 ± 0.62 | % of remaining activity (relative to DMSO) ([1]; listed as Cmp A): 99.83%; % of remaining activity (relative to DMSO) ([2]; listed as Cmp A): 109.38%; % of remaining activity (relative to DMSO) ([3]; listed as Cmp A): 111.83%; % of remaining activity (relative to DMSO) ([4]; CK1a1, listed as Cmp A): 5.37%; remaining binding at 10 µM [12]: 73%; % of remaining activity (relative to DMSO) ([5]; listed as Cmp A): 0.98%; remaining binding at 10 µM [13]: 68%; remaining binding at 10 µM [14]: 74%; remaining binding at 10 µM [15]: 71%; remaining binding at 10 µM [17]: 92%; remaining binding at 10 µM [18]: 99%; remaining binding at 10 µM [19]: 85%; remaining binding at 10 µM [20]: 100%
Nc1ncnc2c1c(COc1cccc(Cl)c1)nn2C1CCOCC1 [PF4800567, 3-[(3-Chlorophenoxy)methyl]-1-(tetrahydro-2H-pyran-4-yl)-1H-pyrazolo[3,4-d]pyrimidin-4-amine] | 86 | 105 | 104 | – | 8.41 | – | – | – | – | – | – | – | 51.1 ± 3.10 | 8.00 ± 0.54 | 50.0 ± 3.49 | 7.51 ± 0.56 | 43.6 ± 3.86 | 5.83 ± 0.61 | 44.0 ± 3.72 | 5.70 ± 0.58 | remaining activity at 10 µM ([4]; read-out: % of remaining activity (relative to DMSO), CK1a1): 29.3%
